Source: US20130123368A1, “METHODS OF REDUCING 15-F2T-ISOP LEVELS IN MAMMALS” (BIOACTIVES, INC., priority 2007, published 2013)

Columns and labels:
[1] = system: Caco-2 cell monolayers; assay: Permeability of xanthohumol across Caco-2 cell monolayers; assay type: in vitro ADME; conditions: for Percent Recovery: Caco-2, B-to-A, 2 μM in HBSSg, 37° C.
Method: Percent Recovery=100×((Vr×Cr^final)+(Vd×Cd^final))/(Vd×C0)
Where: • dCr/dt is the slope of the cumulative concentration in the receiver compartment versus time in μM s^−1. • Vr is the volume of the receiver compartment in cm^3. • Vd is the volume of the donor compartment in cm^3. • A is the area of the cell-free insert (1.13 cm^2 for 12-well Transwell). • Cr^final is the cumulative receiver concentration in μM at the end of the incubation period. • Cd^final is the concentration of the donor in μM at the end of the incubation period. • C0 is the initial concentration of the dosing solution in μM.
Each determination was performed in duplicate.

[2] = system: Caco-2 cell monolayers; assay: Certification of Caco-2 Transwell plates with reference compounds; assay type: in vitro ADME; conditions: plate certification TW12, passage 63, age 22 days
Method: To test the permeability of xanthohumol across Caco-2 cell monolayers, Caco-2 cell monolayers were grown to confluence on collagen-coated, microporous, polycarbonate membranes in 12-well Costar Transwell® plates. Details of the plates and their certification are shown below in Table 3. The test article was also the aqueous xanthohumol formulation, and the dosing concentration was 2 μM in the assay buffer (HBSSg) as in the previous example. Cell monolayers were dosed on the apical side (A-to-B) or basolateral side (B-to-A) and incubated at 37° C. with 5% CO2 in a humidified incubator. Samples were taken from the donor chamber at 120 minutes, and samples from the receiver chamber were collected at 60 and 120 minutes. Each determination was performed in duplicate. Lucifer yellow permeability was also measured for each monolayer after being subjected to the test article to ensure no damage was inflicted to the cell monolayers during the permeability experiment. All samples were assayed for Xanthohumol by LC/MS/MS using electrospray ionization. The apparent permeability (Papp), and percent recovery were calculated as described above.

Compound | Significant Efflux ([1]; Caco-2) | Percent Recovery ([1]; Average) | Percent Recovery ([1]; Rep. 1) | Absorption Potential ([1]; Caco-2, classification by Papp(A-to-B)) | Papp [2] | Lucifer yellow Papp, post-experiment integrity control ([1]; all monolayers after exposure to the test article)
COc1cc(O)c(CC=C(C)C)c(O)c1C(=O)/C=C/c1ccc(O)cc1 [Xanthohumol, 2′,4′,4-trihydroxy-6′-methoxy-3′-prenylchalcone] | No | 81 | 81 | Medium (1.0 × 10^−6 cm/s > Papp(A-to-B) ≧ 0.5 × 10^−6 cm/s Medium) |  | 
Lucifer Yellow [reference compound] |  |  |  |  | 0.13 ×10⁻⁶ cm/s | < 0.8 ×10⁻⁶ cm/s
